Key:
[1] = system: TNF-α production stimulated by lipopolysaccharide (LPS) in THP-1; assay: Inhibitory activity against TNF-α production using human cell lines (THP-1, LPS); type: cell-based; conditions: 1.5 h, THP-1 cells, 90 minutes, TNF-α in supernatant by ELISA
Experimental: (2) Inhibitory Activity Against TNF-α Production Using Human Cell Lines
Using THP-1 which is a human monocytic cell line, the inhibitory effect of the compound of the present invention against TNF-α production stimulated by lipopolysaccharide (LPS) was studied.
Each 50 μL of lipopolysaccharide (LPS; Difco #3120-25-0) prepared to a concentration of 40 ng/mL using RPMI-1640 medium containing 10% fetal calf serum (hereinafter abbreviated to RPMI-1640) and RPMI-1640 containing the compound of the present invention was added to a 96-well plate for cell culture. One hundred μL of the cell suspension of THP-1 (Dainippon Pharmaceutical Co., Ltd, #06-202) prepared to a cell density of 2×10^6 cells/mL using RPMI-1640 was added and cultured for 90 minutes at 37° C. in an incubator (5% CO2, 95% air). After completion of the reaction, the culture medium supernatant was recovered and the amount of produced TNF-α was measured using an ELISA kit (Invitrogen, #850090192).
The inhibitory activity against TNF-α production, which is the effect of the compound of the present invention, was calculated as an inhibition rate (%) by the following equation: Inhibition rate (%)={(AC−AX)/(AC−AB)}×100
wherein AB is a measured value without LPS induction;
AC is a measured value with LPS induction in the absence of a test compound; and
AX is a measured value with LPS induction in the presence of a test compound. […]

[2] = system: TNF-α production induced by lipopolysaccharide (LPS) in rats; assay: Rat cytokine-production model; type: in vivo
Experimental: (3) Rat Cytokine-production Model
The in vivo effect of the compound of the present invention was studied on TNF-α production induced by lipopolysaccharide (LPS) in rats.
A vehicle containing the compound of the present invention was orally administered to male Lew mice (Charles River Japan, Inc.), and after 2 hours, lipopolysaccharide (LPS, 055:B5, Difco) was intravenously administered at the dose of 10 μg/kg (5 animals/group). Only a vehicle was orally administered to a control group (5 animals). Ninety minutes after the LPS treatment, heparinized blood collection was performed via the abdominal cava vein under anesthesia with ether, and blood plasma was obtained by centrifugation (12,000 rpm, 3 minutes, 4° C.). The obtained blood plasma sample was stored at −80° C. until it was used. TNF-α in the blood plasma was measured using an ELISA kit from Genzyme/Techne (#10516).
The inhibitory activity of the compound of the present invention against TNF-α production was calculated as an inhibition rate (%) according to the following equation: Inhibition rate (%)={(AC−AX)/AC}×100
wherein AC is a measured value in case where no test compound was administered under LPS induction, and
AX is a measured value in case where a test compound was administered under LPS induction.

[3] = target: recombinant human p38α MAP kinase (Homo sapiens, UniProt Q16539); assay: Study on p38α MAP kinase inhibitory activity (ATF2 phosphorylation, Alpha Screen); type: biochemical; conditions: phosphorylation of biotinylated ATF2 by recombinant human p38α MAP kinase, 30° C. 30 minutes
Chain of recombinant human p38α MAP kinase (Q16539 whole entry): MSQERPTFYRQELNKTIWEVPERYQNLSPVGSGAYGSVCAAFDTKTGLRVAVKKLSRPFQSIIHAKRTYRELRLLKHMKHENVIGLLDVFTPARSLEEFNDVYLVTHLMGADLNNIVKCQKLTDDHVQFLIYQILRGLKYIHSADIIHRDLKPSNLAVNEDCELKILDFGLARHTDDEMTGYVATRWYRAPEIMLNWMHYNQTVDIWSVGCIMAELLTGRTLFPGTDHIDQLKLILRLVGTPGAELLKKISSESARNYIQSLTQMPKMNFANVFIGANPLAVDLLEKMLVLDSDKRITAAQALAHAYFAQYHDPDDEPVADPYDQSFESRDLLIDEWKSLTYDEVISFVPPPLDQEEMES
Experimental: (1) Study on p38α Map Kinase Inhibitory Activity
Using activating transcription factor −2 (hereinafter abbreviated to ATF2) which is a substrate for p38α MAP kinase, the inhibitory action of the compounds of the present invention was investigated on the phosphorylation by a recombinant human p38α MAP kinase.
A kinase buffer (25 mM Tris-HCl (pH 7.5), 5 mM β-glycerophosphate, 2 mM dithiothreitol, 0.1 mM Na3VO4, 10 mM MgCl2) containing a recombinant human p38a MAP kinase was added to a 384-well plate (5 μL)(6.25 ng protein/well) for fluorescence measurement. After addition of a kinase buffer (5 μL) containing the compound of the present invention, the resulting mixture was incubated at room temperature for 20 minutes. […] The amount of a complex of the phosphorylated ATF2 and anti-phosphorylated ATF2 antibody produced by the reaction was measured using an Alpha Screen™ Rabbit Detection kit (Packard #6760607).
The p38α MAP kinase inhibitory activity, which is the effect of the compound of the present invention, was calculated as an inhibition rate (%) according to the following equation: Inhibition rate (%)={(AC−AX)/(AC−AB)}×100
wherein AB is a measured value without addition of the enzyme;
AC is a measured value with addition of the enzyme in the absence of a test compound; and
AX is a measured value with addition of the enzyme in the presence of a test compound. […]

Row | SMILES | IC50 [1] | TNF-α production inhibitory activity stronger by a factor than that of the compound disclosed in WO 01/030778 ([2]; comparison in same experimental model (1 mg/kg vs 10 mg/kg)) | inhibition against in vivo TNF-α production induced by LPS stimulation ([2]; dose of 1 mg/kg orally, LPS 10 μg/kg i.v. after 2 hours, plasma 90 minutes after LPS) | IC50 [3] | inhibition against in vivo TNF-α production induced by LPS stimulation ([2]; dose of 10 mg/kg, same experimental model)
1 | CN1CCC(c2nc(-c3ccc(=O)n(-c4c(Cl)cccc4Cl)c3)c(-c3ccc(F)cc3Cl)s2)CC1 [Example 10(2), 5-[5-(2-chloro-4-fluorophenyl)-2-(1-methylpiperidin-4-yl)-1,3-thiazol-4-yl]-1-(2,6-dichlorophenyl)pyridin-2(1H)-one] | 1.4 nM | ≥ 10 | 90% | 1.4 nM | 
2 | C[C@H](Nc1cc(-c2sc(C3CCN(C)CC3)nc2-c2ccc(F)cc2)ccn1)c1ccccc1 [compound disclosed in WO 01/030778, 4-[4-(4-fluorophenyl)-2-(1-methyl-4-piperidinyl)-1,3-thiazol-5-yl]-N-[(1S)-1-phenylethyl]-2-pyridinamine, reference compound] |  |  |  |  | 95%

— US7713998B2, “Nitrogenous heterocyclic compound and pharmaceutical use thereof” (Ono Pharmaceutical Co., Ltd., priority 2004, dated 2010)
